How the values were obtained:
primary human MSC cells = assay: BMP regulation: gene expression array (SABiosciences PAHS-026) in primary human MSC cells; assay type: cell-based; conditions: hMSC, 8 hours
Method: SABisosciences custom array plates (Cat#PAHS-026) were used to measure BMP expression. These array plates are validated for efficiency when used at recommended conditions and reagents. On day 1, primary human MSC cells were plated at 200,000 cell/well using 6-well plates with 10% FBS, Penicillin and Streptomycin 10 mL per Liter, in recommended media. Only early passages of cells were used.
On day 2, cells were treated with compounds dissolved in DMSO diluted 1:1000 or more to avoid solvent effects. A non-treated negative control group was evaluated (FIG. 1, “Control Group”) along with a positive control group containing PS1 at 0.1 μM (FIG. 1, “Group 1”). Final testing concentration for CSA-90 was 5.0 μM (FIG. 1, “Group 2”), 2.5 μM (FIG. 1, “Group 3”), and 1.2 μM (FIG. 1, “Group 4”). Treatment lasted 8 hours, followed by RNA isolation using a QIAGEN Miniprep Kit. RNA was measured at 260/280 nm using NanoDrop2000 and normalized to 250 ng. cDNA preparation was done using QIAGEN First Strand kit.

quadriceps of mice = assay: Ectopic bone formation in quadriceps of mice (muscle pouch model), XR and microCT; assay type: in vivo
Method: 10 μg rhBMP-2 was implanted into the quadriceps of mice with 0, 25 μg, or 250 μg CSA-90. A control group received 250 μg CSA-90 alone (without rhBMP-2). Bone was allowed to form ectopically over 3 weeks. Specimens were then harvested for XR (FIG. 5) and microCT (FIG. 7).
MicroCT scans were performed on all samples using a Skyscan 1174 microCT scanner. Scanning data confirmed increases in bone volume (BV) with the addition of CSA-90 (See FIG. 6).

MC3T3-E1 cells = assay: Quantitative spectroscopic ALP (alkaline phosphatase) assay in MC3T3-E1 cells; assay type: cell-based; conditions: MC3T3-E1 day 4 of differentiation, with or without 200 ng/mL rhBMP-2 and 50 μM sodium alginate; compared with CSA-90 (FIG. 4)
Method: MC3T3-E1 cells at day 4 of differentiation were treated with or without 200 ng/mL rhBMP-2 (recombinant human BMP-2), 0-50 μM CSA-90, and with or without 50 μM sodium alginate. Quantitative spectroscopic ALP (alkaline phosphatase) assays were performed in on multiple wells and normalized to viable cell number. Experimental assays were carried out twice independently. Data for this analysis is provided in FIG. 4 (from left to right 0, 0.5, 1, 5, 10, 25, and 50 μM CSA-90 were tested with or without BMP-2 and Algin).

[1] = v. untreated control, concentration not given

With `CCCCCN(CCCCC)CCC[C@@H](C)[C@H]1CC[C@H]2[C@@H]3[C@H](OCCCN)C[C@@H]4C[C@H](OCCCN)CC[C@]4(C)[C@H]3C[C@H](OCCCN)[C@]12C` [CSA-90] the “up-regulation of BMP-2 mRNA expression” value (primary human MSC cells; 5 μM concentration) was roughly 6 fold, the “Fold Up-Regulation ACTB (Actin, beta)” value (primary human MSC cells; [1]) was −4.1173 fold and the “Fold Up-Regulation AHSG (Alpha-2-HS-glycoprotein)” value (primary human MSC cells; [1]) was 1.4077 fold. For the same compound, the “Fold Up-Regulation ALPL (Alkaline phosphatase, liver/bone/kidney)” value (primary human MSC cells; [1]) was −5.8397 fold, the “Fold Up-Regulation AMBN (Ameloblastin)” value (primary human MSC cells; [1]) was −1.0298 fold and the “Fold Up-Regulation AMELY (Amelogenin, Y-linked)” value (primary human MSC cells; [1]) was −1.008 fold. For the same compound, the “Fold Up-Regulation ANXA5 (Annexin A5)” value (primary human MSC cells; [1]) was −1.0287 fold, the “Fold Up-Regulation BGLAP (Bone gamma-carboxyglutamate (gla) protein)” value (primary human MSC cells; [1]) was −1.1336 fold and the “Fold Up-Regulation BGN (Biglycan)” value (primary human MSC cells; [1]) was −2.2679 fold. For the same compound, the “Fold Up-Regulation BMP-1 (Bone morphogenetic protein 1)” value (primary human MSC cells; [1]) was −1.4719 fold, the “Fold Up-Regulation BMP-2 (Bone morphogenetic protein 2)” value (primary human MSC cells; [1]) was 6.7295 fold and the “Fold Up-Regulation BMP-3 (Bone morphogenetic protein 3)” value (primary human MSC cells; [1]) was 1.3888 fold. For the same compound, the “Fold Up-Regulation BMP-4 (Bone morphogenetic protein 4)” value (primary human MSC cells; [1]) was −3.7558 fold, the “Fold Up-Regulation BMP-5 (Bone morphogenetic protein 5)” value (primary human MSC cells; [1]) was 2.1036 fold and the “Fold Up-Regulation BMP-6 (Bone morphogenetic protein 6)” value (primary human MSC cells; [1]) was 14.8826 fold. For the same compound, the “Fold Up-Regulation CALCR (CALCITONIN RECEPTOR)” value (primary human MSC cells; [1]) was 2.1036 fold, the “Fold Up-Regulation CD36 (CD36 molecule, thrombospondin receptor)” value (primary human MSC cells; [1]) was −2.3276 fold and the “Fold Up-Regulation CDH11 (Cadherin 11, type 2, OB-cadherin)” value (primary human MSC cells; [1]) was −2.6119 fold. For the same compound, the “Fold Up-Regulation COL1A1 (Collagen, type I, alpha 1)” value (primary human MSC cells; [1]) was −1.9589 fold, the “Fold Up-Regulation COL1A2 (Collagen, type I, alpha 2)” value (primary human MSC cells; [1]) was −1.525 fold and the “Fold Up-Regulation COL2A1 (Collagen, type II, alpha 1)” value (primary human MSC cells; [1]) was 1.0817 fold. For the same compound, the “Fold Up-Regulation COL3A1 (Collagen, type III, alpha 1)” value (primary human MSC cells; [1]) was 1.1521 fold, the “Fold Up-Regulation COL4A3 (Collagen, type IV, alpha 3)” value (primary human MSC cells; [1]) was −9.7105 fold and the “Fold Up-Regulation COL5A1 (Collagen, type V, alpha 1)” value (primary human MSC cells; [1]) was −1.603 fold. The “Fold Up-Regulation COL10A1 (Collagen, type X, alpha 1)” value (primary human MSC cells; [1]) was 1.0439 fold, the “Fold Up-Regulation COL11A1 (Collagen, type XI, alpha 1)” value (primary human MSC cells; [1]) was −2.8055 fold and the “Fold Up-Regulation COL12A1 (Collagen, type XII, alpha 1)” value (primary human MSC cells; [1]) was −1.366 fold. For the same compound, the “Fold Up-Regulation COL14A1 (Collagen, type XIV, alpha 1)” value (primary human MSC cells; [1]) was 1.0661 fold, the “Fold Up-Regulation COL15A1 (Collagen, type XV, alpha 1)” value (primary human MSC cells; [1]) was 1.1217 fold and the “Fold Up-Regulation COMP (Cartilage oligomeric matrix protein)” value (primary human MSC cells; [1]) was 1.5909 fold. The “Fold Up-Regulation CSF2 (Colony stimulating factor 2)” value (primary human MSC cells; [1]) was 3.2231 fold, the “Fold Up-Regulation CSF3 (Colony stimulating factor 3)” value (primary human MSC cells; [1]) was 1.3504 fold and the “Fold Up-Regulation CTSK (Cathepsin K)” value (primary human MSC cells; [1]) was 1.0843 fold. The “Fold Up-Regulation DMP1 (Dentin matrix acidic phosphoprotein 1)” value (primary human MSC cells; [1]) was 2.1036 fold, the “Fold Up-Regulation DSPP (Dentin sialophosphoprotein)” value (primary human MSC cells; [1]) was 2.1036 fold and the “Fold Up-Regulation EGF (Epidermal growth factor)” value (primary human MSC cells; [1]) was −1.3949 fold. The “Fold Up-Regulation EGFR (Epidermal growth factor receptor)” value (primary human MSC cells; [1]) was 1.0894 fold, the “Fold Up-Regulation ENAM (Enamelin)” value (primary human MSC cells; [1]) was 2.1036 fold and the “Fold Up-Regulation FGF1 (Fibroblast growth factor 1)” value (primary human MSC cells; [1]) was −1.7551 fold. For the same compound, the “Fold Up-Regulation FGF2 (Fibroblast growth factor 2)” value (primary human MSC cells; [1]) was −1.0498 fold, the “Fold Up-Regulation FGF3 (Fibroblast growth factor 3)” value (primary human MSC cells; [1]) was −1.5325 fold and the “Fold Up-Regulation FGFR1 (Fibroblast growth factor receptor 1)” value (primary human MSC cells; [1]) was −1.5568 fold. The “Fold Up-Regulation FGFR2 (Fibroblast growth factor receptor 2)” value (primary human MSC cells; [1]) was −3.1961 fold, the “Fold Up-Regulation FLT1 (Fms-related tyrosine kinase 1)” value (primary human MSC cells; [1]) was −2.1823 fold and the “Fold Up-Regulation FN1 (Fibronectin 1)” value (primary human MSC cells; [1]) was −1.4863 fold. The “Fold Up-Regulation GAPDH (Glyceraldehyde-3-phosphate dehydrogenase)” value (primary human MSC cells; [1]) was −1.0501 fold, the “Fold Up-Regulation GDF10 (Growth differentiation factor 10)” value (primary human MSC cells; [1]) was 2.1036 fold and the “Fold Up-Regulation ICAM1 (Intercellular adhesion molecule 1)” value (primary human MSC cells; [1]) was 1.3786 fold. The “Fold Up-Regulation IGF1 (Insulin-like growth factor 1)” value (primary human MSC cells; [1]) was 15.8816 fold, the “Fold Up-Regulation IGF1R (Insulin-like growth factor 1 receptor)” value (primary human MSC cells; [1]) was 1.6854 fold and the “Fold Up-Regulation IGF2 (Insulin-like growth factor 2)” value (primary human MSC cells; [1]) was −2.6412 fold. The “Fold Up-Regulation ITGA1 (Integrin, alpha 1)” value (primary human MSC cells; [1]) was 1.2807 fold, the “Fold Up-Regulation ITGA2 (Integrin, alpha 2)” value (primary human MSC cells; [1]) was 1.6174 fold and the “Fold Up-Regulation ITGA3 (Integrin, alpha 3)” value (primary human MSC cells; [1]) was −2.1172 fold. The “Fold Up-Regulation ITGAM (Integrin, alpha M)” value (primary human MSC cells; [1]) was 2.5974 fold, the “Fold Up-Regulation ITGB1 (Integrin, beta 1)” value (primary human MSC cells; [1]) was −1.3007 fold and the “Fold Up-Regulation MMP2 (Matrix metallopeptidase 2)” value (primary human MSC cells; [1]) was −1.6002 fold. For the same compound, the “Fold Up-Regulation MMP8 (Matrix metallopeptidase 8)” value (primary human MSC cells; [1]) was −1.0189 fold, the “Fold Up-Regulation MMP9 (Matrix metallopeptidase 9)” value (primary human MSC cells; [1]) was 2.0169 fold and the “Fold Up-Regulation MMP10 (Matrix metallopeptidase 10)” value (primary human MSC cells; [1]) was 2.1233 fold. The “Fold Up-Regulation MSX1 (Msh homeobox 1)” value (primary human MSC cells; [1]) was −1.1393 fold, the “Fold Up-Regulation NFKB1 (Nuclear factor of kappa light polypeptide gene enhancer in B-cells 1)” value (primary human MSC cells; [1]) was 1.0365 fold and the “Fold Up-Regulation PDGFA (Platelet-derived growth factor alpha polypeptide)” value (primary human MSC cells; [1]) was −1.1381 fold. The “Fold Up-Regulation PHEX (Phosphate regulating endopeptidase homolog, X-linked)” value (primary human MSC cells; [1]) was −2.0881 fold, the “Fold Up-Regulation RUNX2 (Runt-related transcription factor 2)” value (primary human MSC cells; [1]) was −1.1998 fold and the “Fold Up-Regulation SCARB1 (Scavenger receptor class B, member 1)” value (primary human MSC cells; [1]) was −2.7137 fold. For the same compound, the “Fold Up-Regulation SERPIN H1 (Serpin peptidase inhibitor, clade H, member 1)” value (primary human MSC cells; [1]) was −2.6434 fold, the “Fold Up-Regulation SMAD1 (SMAD family member 1)” value (primary human MSC cells; [1]) was −1.2436 fold and the “Fold Up-Regulation SMAD2 (SMAD family member 2)” value (primary human MSC cells; [1]) was −1.2016 fold. For the same compound, the “Fold Up-Regulation SMAD3 (SMAD family member 3)” value (primary human MSC cells; [1]) was −2.8152 fold, the “Fold Up-Regulation SMAD4 (SMAD family member 4)” value (primary human MSC cells; [1]) was −1.0529 fold and the “Fold Up-Regulation STATH (Statherin)” value (primary human MSC cells; [1]) was 2.5891 fold. For the same compound, the “Fold Up-Regulation TFIP11 (Tuftelin interacting protein 11)” value (primary human MSC cells; [1]) was −1.6592 fold, the “Fold Up-Regulation TGFB1 (Transforming growth factor, beta 1)” value (primary human MSC cells; [1]) was −1.3031 fold and the “Fold Up-Regulation TGFB2 (Transforming growth factor, beta 2)” value (primary human MSC cells; [1]) was 1.619 fold. For the same compound, the “Fold Up-Regulation TGFB3 (Transforming growth factor, beta 3)” value (primary human MSC cells; [1]) was 3.2853 fold, the “Fold Up-Regulation TGFBR1 (Transforming growth factor, beta receptor 1)” value (primary human MSC cells; [1]) was 1.5219 fold and the “Fold Up-Regulation TGFBR2 (Transforming growth factor, beta receptor II)” value (primary human MSC cells; [1]) was −1.7799 fold. The “Fold Up-Regulation TNF (Tumor necrosis factor)” value (primary human MSC cells; [1]) was 2.7072 fold, the “Fold Up-Regulation TUFT1 (Tuftelin 1)” value (primary human MSC cells; [1]) was −4.5431 fold and the “Fold Up-Regulation TWIST1 (Twist homolog 1)” value (primary human MSC cells; [1]) was −1.6813 fold. The “Fold Up-Regulation VCAM1 (Vascular cell adhesion molecule 1)” value (primary human MSC cells; [1]) was −1.1098 fold, the “Fold Up-Regulation VDR (Vitamin D (1,25-dihydroxyvitamin D3) receptor)” value (primary human MSC cells; [1]) was −6.6007 fold and the “Fold Up-Regulation VEGFA (Vascular endothelial growth factor A)” value (primary human MSC cells; [1]) was 1.3548 fold. The “Fold Up-Regulation VEGFB (Vascular endothelial growth factor B)” value (primary human MSC cells; [1]) was 1.2749 fold, the “increase in bone volume (BV) vs rhBMP-2 alone” value (quadriceps of mice; 25 μg with 10 μg rhBMP-2, mice quadriceps, 3 weeks, microCT, parametric P=0.02, nonparametric P<0.01) was “statistically significant” and the “bone formation, CSA alone” value (quadriceps of mice; 250 μg alone without rhBMP-2, muscle pouch model, mice, 3 weeks, microCT (FIG. 7)) was “appears to also result in bone formation”. For the same compound, the “increase in bone volume (BV) vs rhBMP-2 alone” value (quadriceps of mice; 250 μg with 10 μg rhBMP-2, mice quadriceps, 3 weeks, microCT, parametric P<0.01, nonparametric P<0.01) was “statistically significant” and the “increase of ectopic bone volume induced by rhBMP-2 treatment” value (quadriceps of mice; mice quadriceps, 10 μg rhBMP-2 plus CSA-90, 3 weeks, microCT, vs rhBMP-2 alone) was “about 3.2 fold”.
`CCCCCCCCNCCC[C@@H](C)[C@H]1CC[C@H]2[C@@H]3[C@H](OCCCN)C[C@@H]4C[C@H](OCCCN)CC[C@]4(C)[C@H]3C[C@H](OCCCN)[C@]12C` [CSA-13] was tested, and the “ALP (alkaline phosphatase) activity normalized to viable cell number” value (MC3T3-E1 cells) was “Comparable results”.

From patent US9694019B2, “Compositions and methods for treating bone diseases and broken bones” (BRIGHAM YOUNG UNIVERSITY, priority 2011, dated 2017)
